The values below come from ChEMBL document CHEMBL4651402, “Screening of ~5500 FDA-approved drugs and clinical candidates for anti-SARS-CoV-2 activity” (2021).

The experiment has as its system SARS-CoV-2. Put plainly: microbe, parasite or virus in culture. The settings on record: Severe acute respiratory syndrome coronavirus 2, Vero C1008, 48 h; for IC50: read-out: pIC50 (converted).

Broadly, the pIC50 is the IC50 on a negative log10 scale, so that one unit is a factor of ten. A low value points to a large IC50.

pIC50: −log10 of the molar value.

Turning to `O=C(NCCCN1CCOCC1)c1ccc(Cl)cc1` [EPROBEMIDE], the negative-log IC50 (pIC50) was under 4.70 and the IC50 is over 20 µM.
On the same counts, the results for `C[C@]12CC[C@H]3C(=CCc4cc(O)ccc43)[C@@H]1CCC2=O` [EQUILIN] are under 4.70 and over 20 µM.
On the same counts, the results for `CC(C)C[C@H]1C(=O)N2CCC[C@H]2[C@]2(O)O[C@](NC(=O)[C@@H]3C=C4c5cccc6[nH]cc(c56)C[C@H]4N(C)C3)(C(C)C)C(=O)N12` [ERGOCRYPTINE] are under 4.70 and over 20 µM.
For `C[C@@H](CO)NC(=O)[C@@H]1C=C2c3cccc4[nH]cc(c34)C[C@H]2N(C)C1` [ERGONOVINE], the negative-log IC50 (pIC50) was under 4.70 and the IC50 was over 20 µM.
As to `CN1C[C@H](C(=O)N[C@]2(C)O[C@@]3(O)[C@@H]4CCCN4C(=O)[C@H](Cc4ccccc4)N3C2=O)C=C2c3cccc4[nH]cc(c34)C[C@H]21` [ERGOTAMINE], the negative-log IC50 (pIC50) was under 4.70 and the IC50 was over 20 µM.
On the same counts, the results for `C#Cc1cccc(Nc2ncnc3cc(OCCOC)c(OCCOC)cc23)c1` [ERLOTINIB] are under 4.70 and over 20 µM.
On the same counts, the results for `CCOc1ccc(Cc2cc([C@]34OC[C@](CO)(O3)[C@@H](O)[C@H](O)[C@H]4O)ccc2Cl)cc1` [ERTUGLIFLOZIN] are under 4.70 and over 20 µM.
Turning to `CCOC(=O)CCC(=O)O[C@H]1[C@H](O[C@@H]2[C@@H](C)[C@H](O[C@H]3C[C@@](C)(OC)[C@@H](O)[C@H](C)O3)[C@@H](C)C(=O)O[C@H](CC)[C@@](C)(O)[C@H](O)[C@@H](C)C(=O)[C@H](C)C[C@@]2(C)O)O[C@H](C)C[C@@H]1N(C)C` [ERYTHROMYCIN ETHYLSUCCINATE], the negative logarithm of the IC50 (pIC50) is under 4.70 and the IC50 was over 20 µM.
On the same counts, the results for `CC[C@H]1OC(=O)[C@H](C)[C@@H](O[C@H]2C[C@@](C)(OC)[C@@H](O)[C@H](C)O2)[C@H](C)[C@@H](O[C@@H]2O[C@H](C)C[C@H](N(C)C)[C@H]2O)[C@](C)(O)C[C@@H](C)C(=O)[C@H](C)[C@@H](O)[C@]1(C)O` [ERYTHROMYCIN] are under 4.70 and over 20 µM.
On the same counts, the results for `O=C(CN1CCNCC1)NC1CCCCC1` [ESAPRAZOLE] are under 4.70 and over 20 µM.
On the same counts, the results for `CC(C)NC[C@H](O)COc1ccc(CC(N)=O)cc1` [ESATENOLOL] are under 4.70 and over 20 µM.
As for `CN(C)CCC[C@@]1(c2ccc(F)cc2)OCc2cc(C#N)ccc21` [ESCITALOPRAM], the pIC50 was under 4.70 and the IC50 was over 20 µM.
On the same counts, the results for `O=c1ccc2cc(O[C@@H]3O[C@H](CO)[C@@H](O)[C@H](O)[C@H]3O)c(O)cc2o1` [ESCULIN] are under 4.70 and over 20 µM.
For `COC(=O)CCc1ccc(OCC(O)CNC(C)C)cc1` (stereo not given) [ESMOLOL], the negative logarithm of the IC50 (pIC50) is under 4.70 and the IC50 was over 20 µM.
On the same counts, the results for `COc1ccc2[nH]c([S@@+]([O-])Cc3ncc(C)c(OC)c3C)nc2c1` [ESOMEPRAZOLE] are under 4.70 and over 20 µM.
Take `CCN(CC)CC#CCOC(=O)[C@@](O)(c1ccccc1)C1CCCCC1` [ESOXYBUTYNIN]: the negative-log IC50 (pIC50) is under 4.70 and the IC50 was over 20 µM.
On the same counts, the results for `C[C@]12CC[C@@H]3c4ccc(O)cc4CC[C@H]3[C@@H]1CC[C@@H]2OC(=O)CCC1CCCC1` [ESTRADIOL CYPIONATE] are under 4.70 and over 20 µM.
On the same counts, the results for `C[C@]12CC[C@@H]3c4ccc(O)cc4CC[C@H]3[C@@H]1CC[C@@H]2O` [ESTRADIOL] are under 4.70 and over 20 µM.
Turning to `C=CCc1ccc(OC)cc1` [ESTRAGOLE], the pIC50 is under 4.70 and the IC50 is over 20 µM.
On the same counts, the results for `C[C@]12CC[C@@H]3c4ccc(O)cc4CC[C@H]3[C@@H]1C[C@@H](O)[C@@H]2O` [ESTRIOL] are under 4.70 and over 20 µM.
